Results reported in patent US12227512B2, “Benzimidazoles and methods of using same” (priority 2019, dated 2025).

Experiments:
[1] = Neutral Red (Toxicity) of the antiviral screening; settings: human, Huh7 cells
[2] = test system: Dengue virus 2 New Guinea C; experiment: In vitro antiviral screening, Neutral Red (Cytopathic effect); settings: Huh7; for SI50: Neutral Red (Cytopathic effect/Toxicity); for EC50: Dengue virus, Neutral Red (Cytopathic effect)
[3] = test system: Dengue virus 2 New Guinea C; experiment: In vitro antiviral screening, Visual (Virus yield reduction); settings: Huh7; for SI90: Visual (Virus yield reduction)/Neutral Red (Toxicity); for EC90: Dengue virus, Visual (Virus yield reduction)
[4] = Mouse PK evaluation, plasma, IV; settings: CD-1 mice; for concentration at 0.083 h / concentration at 0.25 h / concentration at 0.5 h / concentration at 1 h / concentration at 2 h / concentration at 4 h / concentration at 8 h / concentration at 24 h / AUC(0-inf) / AUC(0-t) / MRT inf / half-life: CD-1, mouse, plasma, 3 mg/kg; for concentration at 0.083 h / concentration at 0.25 h / concentration at 0.5 h / concentration at 1 h / concentration at 2 h / concentration at 4 h / concentration at 8 h / concentration at 24 h: intravenous, Plasma concentration; for AUC(0-inf) / AUC(0-t) / MRT inf / half-life: iv; for AUC(0-inf): AUCInf; for AUC(0-t): AUClast; for MRT inf: MRTInf_obs
[5] = Neutral Red (Toxicity) of the antiviral screening; settings: African green monkey, Vero 76 cells
Vero 76 = experiment: Neutral Red (Toxicity) of the antiviral screening; settings: Assay No. 3; Neutral Red (Cytopathic effect/Toxicity) line
Zika MR766 [6] = experiment: In vitro antiviral screening, Neutral Red (Cytopathic effect); settings: Vero 76
Zika MR766 [7] = experiment: In vitro antiviral screening, Visual (Virus yield reduction); settings: Vero 76

Question: Which results are given for `CN(C)CCCn1c(N)nc2ccc3c(c21)CC(CO)O3` (centres unmarked) [DD041]?
Answer: CC50 ([1]; CC50, Assay No. 1, Neutral Red (Cytopathic effect/Toxicity) line): > 100 µM; CC50 ([1]; CC50, Assay No. 1, Neutral Red (Toxicity), line of the virus yield reduction assay): > 100 µM; CC50 ([1]; CC50, Assay No. 2, Neutral Red (Cytopathic effect/Toxicity) line): 26 µM; CC50 ([1]; CC50, Assay No. 2, Neutral Red (Toxicity), line of the virus yield reduction assay): 26 µM; SI50 ([2]; Assay No. 1): >15; SI50 ([2]; Assay No. 2): 4.6; EC50 ([2]; Huh-7, Assay No. 1): 6.7 µM; EC50 ([2]; Huh-7, Assay No. 2): 5.6 µM; SI90 ([3]; Assay No. 1): >10; SI90 ([3]; Assay No. 2): 14; EC90 ([3]; Huh-7, Assay No. 1): 10 µM; EC90 ([3]; Huh-7, Assay No. 2): 1.83 µM; AUC_%Extrap_obs, Mean ([4]; 3 mg/kg IV): 1.88%; AUC_%Extrap_obs, Mouse 1 ([4]; 3 mg/kg IV): 3.73%; AUC_%Extrap_obs, Mouse 2 ([4]; 3 mg/kg IV): 0.927%; AUC_%Extrap_obs, Mouse 3 ([4]; 3 mg/kg IV): 0.993%; AUClast/D, Mean ([4]; 3 mg/kg IV): 262; AUClast/D, Mouse 1 ([4]; 3 mg/kg IV): 261; AUClast/D, Mouse 2 ([4]; 3 mg/kg IV): 251; AUClast/D, Mouse 3 ([4]; 3 mg/kg IV): 274; C0, Mean ([4]; 3 mg/kg IV): 1959 ng/mL; C0, Mouse 1 ([4]; 3 mg/kg IV): 2033 ng/mL; C0, Mouse 2 ([4]; 3 mg/kg IV): 1738 ng/mL; C0, Mouse 3 ([4]; 3 mg/kg IV): 2107 ng/mL; Cl_obs, Mean ([4]; 3 mg/kg IV): 62.5 mL/min/kg; Cl_obs, Mouse 1 ([4]; 3 mg/kg IV): 61.4 mL/min/kg; Cl_obs, Mouse 2 ([4]; 3 mg/kg IV): 65.8 mL/min/kg; Cl_obs, Mouse 3 ([4]; 3 mg/kg IV): 60.3 mL/min/kg; Vss_obs, Mean ([4]; 3 mg/kg IV): 7.55 L/kg; Vss_obs, Mouse 1 ([4]; 3 mg/kg IV): 5.80 L/kg; Vss_obs, Mouse 2 ([4]; 3 mg/kg IV): 8.48 L/kg; Vss_obs, Mouse 3 ([4]; 3 mg/kg IV): 8.37 L/kg; Plasma concentration, Mouse 1 ([4]; 3 mg/kg IV, 24 h): BLOQ; concentration at 0.083 h ([4]; Mean, 3 mg/kg IV): 1170 ng/mL; concentration at 0.25 h ([4]; Mean, 3 mg/kg IV): 417 ng/mL; concentration at 0.5 h ([4]; Mean, 3 mg/kg IV): 281 ng/mL; concentration at 1 h ([4]; Mean, 3 mg/kg IV): 161 ng/mL; concentration at 2 h ([4]; Mean, 3 mg/kg IV): 65.7 ng/mL; concentration at 4 h ([4]; Mean, 3 mg/kg IV): 27.4 ng/mL; concentration at 8 h ([4]; Mean, 3 mg/kg IV): 8.4 ng/mL; concentration at 24 h ([4]; Mean, 3 mg/kg IV, 24 h): 1.11 ng/mL; concentration at 0.083 h ([4]; Mouse 1, 3 mg/kg IV): 1250 ng/mL; concentration at 0.25 h ([4]; Mouse 1, 3 mg/kg IV): 470 ng/mL; concentration at 0.5 h ([4]; Mouse 1, 3 mg/kg IV): 322 ng/mL; concentration at 1 h ([4]; Mouse 1, 3 mg/kg IV): 145 ng/mL; concentration at 2 h ([4]; Mouse 1, 3 mg/kg IV): 67.5 ng/mL; concentration at 4 h ([4]; Mouse 1, 3 mg/kg IV): 31.6 ng/mL; concentration at 8 h ([4]; Mouse 1, 3 mg/kg IV): 9.69 ng/mL; concentration at 0.083 h ([4]; Mouse 2, 3 mg/kg IV): 1070 ng/mL; concentration at 0.25 h ([4]; Mouse 2, 3 mg/kg IV): 403 ng/mL; concentration at 0.5 h ([4]; Mouse 2, 3 mg/kg IV): 255 ng/mL; concentration at 1 h ([4]; Mouse 2, 3 mg/kg IV): 152 ng/mL; concentration at 2 h ([4]; Mouse 2, 3 mg/kg IV): 66.4 ng/mL; concentration at 4 h ([4]; Mouse 2, 3 mg/kg IV): 28.5 ng/mL; concentration at 8 h ([4]; Mouse 2, 3 mg/kg IV): 6 ng/mL; concentration at 24 h ([4]; Mouse 2, 3 mg/kg IV, 24 h): 1.05 ng/mL; concentration at 0.083 h ([4]; Mouse 3, 3 mg/kg IV): 1190 ng/mL; concentration at 0.25 h ([4]; Mouse 3, 3 mg/kg IV): 377 ng/mL; concentration at 0.5 h ([4]; Mouse 3, 3 mg/kg IV): 267 ng/mL; concentration at 1 h ([4]; Mouse 3, 3 mg/kg IV): 187 ng/mL; concentration at 2 h ([4]; Mouse 3, 3 mg/kg IV): 63.3 ng/mL; concentration at 4 h ([4]; Mouse 3, 3 mg/kg IV): 22 ng/mL; concentration at 8 h ([4]; Mouse 3, 3 mg/kg IV): 9.51 ng/mL; concentration at 24 h ([4]; Mouse 3, 3 mg/kg IV, 24 h): 1.17 ng/mL; AUC(0-inf) ([4]; Mean, 3 mg/kg IV): 801 ng·h/mL; AUC(0-inf) ([4]; Mouse 1, 3 mg/kg IV): 814 ng·h/mL; AUC(0-inf) ([4]; Mouse 2, 3 mg/kg IV): 760 ng·h/mL; AUC(0-inf) ([4]; Mouse 3, 3 mg/kg IV): 829 ng·h/mL; AUC(0-t) ([4]; Mean, 3 mg/kg IV): 786 ng·h/mL; AUC(0-t) ([4]; Mouse 1, 3 mg/kg IV): 784 ng·h/mL; AUC(0-t) ([4]; Mouse 2, 3 mg/kg IV): 753 ng·h/mL; AUC(0-t) ([4]; Mouse 3, 3 mg/kg IV): 821 ng·h/mL; MRT inf ([4]; Mean, 3 mg/kg IV): 2.01 h; MRT inf ([4]; Mouse 1, 3 mg/kg IV): 1.57 h; MRT inf ([4]; Mouse 2, 3 mg/kg IV): 2.15 h; MRT inf ([4]; Mouse 3, 3 mg/kg IV): 2.31 h; half-life ([4]; T1/2, Mean, 3 mg/kg IV): 3.9 h; half-life ([4]; T1/2, Mouse 1, 3 mg/kg IV): 2.17 h; half-life ([4]; T1/2, Mouse 2, 3 mg/kg IV): 4.65 h; half-life ([4]; T1/2, Mouse 3, 3 mg/kg IV): 4.87 h; CC50 [5]: > 100 µM; CC50 (Vero 76): > 100 µM; SI50 (Zika MR766 [6]; Assay No. 3, Neutral Red (Cytopathic effect/Toxicity)): >9.1; EC50 (Zika MR766 [6]; Zika virus): 11 µM; SI90 (Zika MR766 [7]; Assay No. 3, Visual (Virus yield reduction)/Neutral Red (Toxicity)): >5.9; EC90 (Zika MR766 [7]; Zika virus): 17 µM
